In patent US20220372430A1, “PROTISTS ENRICHED WITH LIPIDS RICH IN POLYUNSATURATED FATTY ACIDS” (BIOREA, priority 2015, published 2022):

What was measured:
Schizochytrium limacinum = conditions: added exogenously to the culture medium of Schizochytrium, in particular Schizochytrium limacinum; cited from earlier work
Crypthecodinium cohnii = conditions: n-dodecane (oxygen carrier) added to culture medium of Crypthecodinium cohnii; cited from earlier work
[1] = system: Schizochytrium limacinum ATCC-MYA1381; test: Culture of Schizochytrium limacinum in medium with a selenium-containing compound; fatty acid profile of total lipids by GC-FID; type: cell-based; conditions: 5 mg of selenium/L in culture medium, incubation 187 h
Method: A strain of Schizochytrium limacinum ATCC-MYA1381 was obtained from the ATCC bank (www.atcc.org).
The growth characteristics as well as the production of lipids by Schizochytrium limacinum were measured in the presence of different forms of selenium and compared in the absence of such additives (control referenced “Without Se” in the figures).
Pre-culture of the strain Schizochytrium limacinum ATCC-MYA1381 was carried out in standard liquid medium, the composition of which is given in Table 1. To this end, starter cultures of 50 mL were started in a 250 mL Erlen flask from a colony isolated on 633 M3 chytrid agar (www.atcc.org) and cultured at 25° C.±1° C. in heterotrophy for 48 h in this standard liquid medium. The 100 mL inoculum is then started in a 500 mL Erlen flask from these “starter” cultures at an initial concentration of 1.0×10^6 cells/m/L in the same culture conditions as the latter for 4 days. The cultures were continuously aerated by orbital stirring at 100 rpm (“revolutions per minute”).
The cultures for enrichment with selenium-containing compounds were started from the inoculum at an initial concentration of 1.0×10^6 cells/mL for a final volume of 400 mL in a 2.0 L Erlen flask at 25° C.±1° C. in heterotrophy for 187 h.
The cultures were continuously aerated by orbital stirring at 100 rpm. […]
The total concentration of biomass was monitored by measuring the dry mass (filtration on GFC filter, Whatman, then drying in an oven under vacuum, 70° C. and −0.8 bar (80 kPa), for 24 h minimum before weighing). 10^7 cells/mL were extracted in order to quantify the total lipids. […] In order to ensure complete extraction of the lipids, the tube was kept under stirring on a rocker for 6 hours in darkness, then stored at −20° C. before being analyzed by GC-FID (gas chromatography with flame ionization detection) in order to determine the quantity and the profiles of the total fatty acids extracted. […]

[2] = system: Crypthecodinium cohnii CCMP 316; test: Culture of Crypthecodinium cohnii in medium containing selenomethionine; fatty acid profile and total lipids; type: cell-based
Method: The total concentration of biomass was monitored by measuring the dry mass (filtration on GFC filter, Whatman, then drying in an oven under vacuum, 70° C. and −0.8 bar (80 kPa), for 24 h minimum before weighing). 10^7 cells/mL were extracted in order to quantify the total lipids. The method for extracting lipids is known to a person skilled in the art and is as described by the publication “Bligh E. G. & Dyer W. J., A rapid method of total lipid extraction and purification, Can. J. Biochem. Physiol 37 1959 911-917”, this method having been slightly adapted for microalga cells. Thus, for each measurement, approximately 10 mL of culture (biomass and medium), freshly sampled, was washed with demineralized water so as to remove the extracellular salts before lyophilization, then placed in a glass tube and centrifuged for 10 mins at 3600 g and at 4° C. After centrifugation, the supernatant was removed and the pellet containing the cells was lyophilized. Extraction was carried out with 6 mL of a monophasic CHCl3/MeOH (chloroform/methanol) mixture in proportions of 2/1 (V/V). In order to ensure complete extraction of the lipids, the tube was kept under stirring on a rocker for 6 hours in darkness, then stored at −20° C. before being analyzed by GC-FID (gas chromatography with flame ionization detection) in order to determine the quantity and the profiles of the total fatty acids extracted.
It was produced in the same way as in Example 1, except that the protist is Crypthecodinium cohnii instead of Schizochytrium limacinum, and that a single source of selenium was used: selenomethionine (“SeMet”).
Crypthecodinium cohnii is a protist, and more precisely a heterotrophic microalga. The strain Crypthecodinium cohnii CCMP 316 was obtained from the NCMA bank (https://ncma.bigelow.org).
The results obtained are shown in FIG. 4 which gives respectively, for Crypthecodinium cohnii after incubation for 187 h, the percentage of compound in the total lipids on the y-axis, for each of the compounds (PUFA, DHA and SFA) shown on the x-axis, in the presence of selenomethionine (reference “With SeMet”), or in the absence of a selenium-containing compound (reference “Without Se”).

C[N+](C)(C)CC(=O)[O-] [glycine betaine]
fermentation yield of polyunsaturated fatty acids (Schizochytrium limacinum): significantly increase

CCCCCCCCCCCC [n-dodecane]
production of DHA, of total lipids (Crypthecodinium cohnii): 51%

O=[Se](O)O [selenite, sodium selenite]
percentage of DHA in the total lipids ([1]; control without Se 41%): 54%
percentage of SFA in the total lipids ([1]; control without Se 44%): 26%
percentage of PUFA in the total lipids ([1]; control without Se 53%): 73%

C[Se]CC[C@H](N)C(=O)O [selenomethionine]
percentage of DHA in the total lipids ([2]; 5 mg/L of selenium in culture medium, incubation 187 h, control without Se 24%): 34%
percentage of PUFA in the total lipids ([2]; 5 mg/L of selenium in culture medium, incubation 187 h, control without Se 25%): 35%
percentage of SFA in the total lipids ([2]; 5 mg/L of selenium in culture medium, incubation 187 h, control without Se 64%): 53.5%
increase in total lipid content in the dry biomass relative to the control medium ([2]; selenium-containing culture medium versus control medium): 34%

OC[C@H]1O[C@H](O[C@H]2O[C@H](CO)[C@@H](O)[C@H](O)[C@H]2O)[C@H](O)[C@@H](O)[C@@H]1O [trehalose]
fermentation yield of polyunsaturated fatty acids (Schizochytrium limacinum): significantly increase
